The values that follow come from paper PMC6017736, “Indole-3-Carbonitriles as DYRK1A Inhibitors by Fragment-Based Drug Design” (Molecules : A Journal of Synthetic Chemistry and Natural …, 2018).

The target of one series is T1, DYRK2 (Homo sapiens, UniProt Q92630).
T1 sequence (Q92630 1-601): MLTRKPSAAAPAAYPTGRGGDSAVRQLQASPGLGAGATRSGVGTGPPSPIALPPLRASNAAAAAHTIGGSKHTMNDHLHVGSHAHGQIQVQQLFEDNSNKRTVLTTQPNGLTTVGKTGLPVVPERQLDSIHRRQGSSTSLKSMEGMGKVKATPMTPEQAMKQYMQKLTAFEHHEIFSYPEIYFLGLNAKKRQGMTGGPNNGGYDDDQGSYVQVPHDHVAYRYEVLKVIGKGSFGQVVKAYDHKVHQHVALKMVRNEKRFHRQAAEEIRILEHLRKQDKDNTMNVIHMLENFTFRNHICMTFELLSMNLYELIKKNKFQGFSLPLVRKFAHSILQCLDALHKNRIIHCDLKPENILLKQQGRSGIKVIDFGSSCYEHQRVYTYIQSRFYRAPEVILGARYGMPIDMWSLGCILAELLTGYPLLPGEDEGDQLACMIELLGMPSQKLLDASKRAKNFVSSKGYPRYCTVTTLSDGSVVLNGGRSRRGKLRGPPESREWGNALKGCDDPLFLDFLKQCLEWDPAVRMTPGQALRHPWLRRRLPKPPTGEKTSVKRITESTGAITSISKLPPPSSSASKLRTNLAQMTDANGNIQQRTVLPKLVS
The experiment in a line: Protein kinase assay ([γ-33P]-ATP, RS peptide substrate), DYRK2. It counts as biochemical. The settings on record: for IC50: 15 µM ATP. How it is done: (§1) DYRK1A, 1B, 2, 3 (human, recombinant, expressed in E. coli as GST fusion proteins) and CLK1, 2, 3, and 4 (mouse, recombinant, expressed in E. coli as GST fusion proteins) were assayed as described for GSK-3 in Buffer A (supplemented extemporaneously with 0.15 mg BSA/mL + 1 mM DTT) with 1 µg of RS peptide ([…]) as a substrate.

The target in the next series is T2, DYRK3 (Homo sapiens, UniProt O43781).
T2 sequence (O43781 1-588): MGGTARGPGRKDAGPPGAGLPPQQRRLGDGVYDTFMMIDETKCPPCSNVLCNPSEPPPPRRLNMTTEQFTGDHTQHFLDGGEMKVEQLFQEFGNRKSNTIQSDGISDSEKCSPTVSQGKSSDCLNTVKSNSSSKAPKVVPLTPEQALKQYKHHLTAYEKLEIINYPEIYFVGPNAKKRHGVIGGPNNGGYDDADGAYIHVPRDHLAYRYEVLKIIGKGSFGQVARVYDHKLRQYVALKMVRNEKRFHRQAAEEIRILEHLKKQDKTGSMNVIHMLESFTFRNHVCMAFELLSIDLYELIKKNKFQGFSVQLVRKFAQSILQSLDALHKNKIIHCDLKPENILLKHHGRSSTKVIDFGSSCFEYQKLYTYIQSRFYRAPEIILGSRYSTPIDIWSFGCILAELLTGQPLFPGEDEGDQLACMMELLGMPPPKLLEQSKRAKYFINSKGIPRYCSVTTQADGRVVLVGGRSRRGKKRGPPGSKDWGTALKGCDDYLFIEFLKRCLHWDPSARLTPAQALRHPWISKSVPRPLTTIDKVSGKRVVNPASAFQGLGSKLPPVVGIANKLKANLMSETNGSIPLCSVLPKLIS
Nature of the series: Protein kinase assay ([γ-33P]-ATP, RS peptide substrate), DYRK3. The settings on record: for IC50: 15 µM ATP. It counts as biochemical. How it is done: as §1

The next series concerns the target CLK4 (Mus musculus, UniProt O35493). Nature of the series: Protein kinase assay ([γ-33P]-ATP, RS peptide substrate), CLK4. The format is biochemical. The conditions noted are these: 15 µM ATP. How it is done: as §1
Series [1] in a line: Kinetic solubility, laser nephelometry. The conditions noted are these: phosphate buffer pH 7.4, nephelometry. It counts as physicochemical. How it is done:
The kinetic solubility was determined using laser nephelometry. A stock solution of the test compounds in DMSO was prepared and further diluted with DMSO to achieve a dilution series of 8–12 solutions with different concentrations. The DMSO solutions (2 µL) were placed in a row on a 96-well plate and diluted with aqueous phosphate buffer pH 7.4 (198 µL). The well plate was scanned by a nephelometer (Nephelostar Plus, BMG Labtech, Ortenberg, Germany). Unsolved particles scatter the laser light which is detected by the nephelometer. The intensity of the scattered light is proportional to the particle concentration in the suspension. The intensity of the scattered light was plotted versus the concentration to obtain a kick off curve. The concentration at which the compounds began to precipitate was directly read out from the kick off curve.

A further series concerns the target GSK-3. The experiment in a line: Protein kinase assay ([γ-33P]-ATP, GS-1 substrate), GSK-3. The conditions noted are these: for Inhibition at 10 µM GSK3 (class symbol): 10 µM compound.
The target in the next series is DYRK1B (Homo sapiens, UniProt Q9Y463). Nature of the series: Protein kinase assay ([γ-33P]-ATP, RS peptide substrate), DYRK1B. The format is biochemical. The settings on record: 15 µM ATP; read-out: IC50 DYRK 1B. How it is done: as §1
Another series has as its target CLK2 (Mus musculus, UniProt O35491). The experiment in a line: Protein kinase assay ([γ-33P]-ATP, RS peptide substrate), CLK2. It counts as biochemical. The settings on record: 15 µM ATP. How it is done: as §1
The target in the next series is CLK3 (Mus musculus, UniProt O35492). The experiment in a line: Protein kinase assay ([γ-33P]-ATP, RS peptide substrate), CLK3. The format is biochemical. The settings on record: for IC50: 15 µM ATP; for inhibition at 10 µM: 10 µM compound, read-out: Inhibition at 10 µM CLK3 (class symbol). How it is done: as §1
Series [2] in a line: Thermodynamic solubility, shake-flask method with HPLC quantification. The settings on record: phosphate buffer pH 7.4, 25 °C. It counts as physicochemical. How it is done: For solubility assays an aqueous phosphate buffer pH 7.4 was used. The buffer was prepared by dissolving Na2HPO4 × 2 H2O (298 mg), KH2PO4 (19 mg) and NaCl (800 mg) in water (100 mL). The pH was adjusted to 7.4 by addition of hydrochloric acid. The thermodynamic solubility was determined using a shake-flask method with quantification by a HPLC method. The test compounds (500 µg) were incubated with aqueous phosphate buffer pH 7.4 (400 µL) in sealed Whatman MiniUniPrep vials (GE Healthcare, Freiburg, Germany). The mixtures were shaken at 25 °C and 400 rpm for 24–96 h (IKA KS 3000 ic control, IKA-Werke, Staufen, Germany). After 24 h, 48 h and 72 h, the mixtures were visually inspected for remaining solids and the solids were filtered off. The concentrations in the resulting saturated solutions were quantified by isocratic HPLC using calibration with external standard. If equilibrium was not reached after 72 h, solubility of a further sample was determined after 96 h. For calibration, a stock solution of 10 mM of the test compounds in DMSO was prepared and the stock solution was diluted with ACN to suitable concentrations. The AUC at the wavelength maxima was used for quantification.

In a further series the target is CLK1 (Mus musculus, UniProt P22518). The experiment in a line: Protein kinase assay ([γ-33P]-ATP, RS peptide substrate), CLK1. The format is biochemical. The conditions noted are these: 15 µM ATP. How it is done:
as §1

Series [3] has as its target T3, DYRK1A (Homo sapiens, UniProt Q13627). Nature of the series: Protein kinase assay ([γ-33P]-ATP, RS peptide substrate), DYRK1A. The format is biochemical. The conditions noted are these: 15 µM ATP; read-out: IC50 DYRK 1A.
The target in series [4] is T3, DYRK1A. The experiment in a line: Ligand-lipophilicity efficiency (pIC50 minus calculated logP). How it is done:
All new compounds were evaluated based on their physicochemical properties regarding Lipinski’s rule of five and the ligand-lipophilicity efficiency (LLE). Both concepts are used to assess the druglikeness of drug development candidates. […] LLE is calculated from pIC50 minus calculated logP [46].

Series [5] can be described thus: Cytotoxicity, cell viability by tetrazolium dye assay (XTT assay). The format is cell-based. The settings on record: human, HeLa cells, read-out: Viability of treated HeLa cells relative to control cells. How it is done: To evaluate the applicability of the 2-substituted indole-3-carbonitrile compounds in cell culture experiments, we assessed toxicity of 6f, 6h, 6s and 13b on HeLa cells by viability assays (Table 4).
The inhibitors were added to the cultured cells from stock solutions in DMSO to the desired final concentration. For cytotoxicity assays, HeLa cells were grown in 96-well plates (20,000–30,000 cells per well) and incubated with the test compounds for 3 days before cell viability was evaluated with the help of a tetrazolium dye assay (XTT assay, AppliChem GmbH, Darmstadt, Germany).
(Formazan colour is commonly taken as a measure of viable cells.)

[6] abbreviates: pIC50 (DYRK1A) minus calculated logP.

Marks after values point to notes of the source that are not given here.

Sequence of CLK2 (O35491 whole entry): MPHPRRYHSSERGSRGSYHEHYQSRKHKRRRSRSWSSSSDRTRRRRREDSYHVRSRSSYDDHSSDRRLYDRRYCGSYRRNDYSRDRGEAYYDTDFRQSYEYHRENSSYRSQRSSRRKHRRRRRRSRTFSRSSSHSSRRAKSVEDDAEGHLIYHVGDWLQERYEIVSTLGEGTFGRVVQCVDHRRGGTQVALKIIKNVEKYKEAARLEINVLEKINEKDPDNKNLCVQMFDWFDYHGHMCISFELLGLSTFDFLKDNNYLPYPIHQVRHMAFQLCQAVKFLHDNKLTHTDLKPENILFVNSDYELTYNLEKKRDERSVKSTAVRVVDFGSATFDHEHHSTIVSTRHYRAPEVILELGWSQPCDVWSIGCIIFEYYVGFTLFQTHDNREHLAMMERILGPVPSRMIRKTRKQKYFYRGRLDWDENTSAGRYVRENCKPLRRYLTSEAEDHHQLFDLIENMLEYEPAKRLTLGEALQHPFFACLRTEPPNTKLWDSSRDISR
Sequence of CLK4 (O35493 whole entry): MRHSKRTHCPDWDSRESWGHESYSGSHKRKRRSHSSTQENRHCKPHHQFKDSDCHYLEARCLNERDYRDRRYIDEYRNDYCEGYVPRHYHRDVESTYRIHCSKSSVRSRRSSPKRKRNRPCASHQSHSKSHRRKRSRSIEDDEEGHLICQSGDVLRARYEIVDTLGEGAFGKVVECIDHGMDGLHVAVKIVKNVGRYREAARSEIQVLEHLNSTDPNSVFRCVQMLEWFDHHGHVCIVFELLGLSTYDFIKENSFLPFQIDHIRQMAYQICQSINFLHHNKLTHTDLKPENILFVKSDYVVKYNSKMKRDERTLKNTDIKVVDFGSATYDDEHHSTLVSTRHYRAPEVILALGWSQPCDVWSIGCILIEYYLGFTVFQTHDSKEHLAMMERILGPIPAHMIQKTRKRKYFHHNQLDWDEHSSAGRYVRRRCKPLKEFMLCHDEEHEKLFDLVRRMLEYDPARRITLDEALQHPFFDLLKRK
Sequence of CLK3 (O35492 whole entry): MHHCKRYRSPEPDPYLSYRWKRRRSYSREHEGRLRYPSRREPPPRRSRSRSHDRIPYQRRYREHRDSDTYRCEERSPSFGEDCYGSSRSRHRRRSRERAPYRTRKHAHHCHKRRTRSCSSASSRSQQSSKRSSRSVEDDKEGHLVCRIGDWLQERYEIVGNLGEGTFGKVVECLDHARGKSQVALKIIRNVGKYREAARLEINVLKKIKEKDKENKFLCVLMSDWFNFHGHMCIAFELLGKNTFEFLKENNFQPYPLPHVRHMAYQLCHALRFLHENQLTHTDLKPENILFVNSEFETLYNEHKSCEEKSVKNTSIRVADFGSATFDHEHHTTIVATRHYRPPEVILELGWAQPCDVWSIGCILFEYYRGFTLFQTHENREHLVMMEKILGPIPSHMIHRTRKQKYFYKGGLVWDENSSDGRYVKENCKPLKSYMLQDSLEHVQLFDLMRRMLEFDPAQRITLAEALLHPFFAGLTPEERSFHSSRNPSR
Sequence of DYRK1B (Q9Y463 whole entry): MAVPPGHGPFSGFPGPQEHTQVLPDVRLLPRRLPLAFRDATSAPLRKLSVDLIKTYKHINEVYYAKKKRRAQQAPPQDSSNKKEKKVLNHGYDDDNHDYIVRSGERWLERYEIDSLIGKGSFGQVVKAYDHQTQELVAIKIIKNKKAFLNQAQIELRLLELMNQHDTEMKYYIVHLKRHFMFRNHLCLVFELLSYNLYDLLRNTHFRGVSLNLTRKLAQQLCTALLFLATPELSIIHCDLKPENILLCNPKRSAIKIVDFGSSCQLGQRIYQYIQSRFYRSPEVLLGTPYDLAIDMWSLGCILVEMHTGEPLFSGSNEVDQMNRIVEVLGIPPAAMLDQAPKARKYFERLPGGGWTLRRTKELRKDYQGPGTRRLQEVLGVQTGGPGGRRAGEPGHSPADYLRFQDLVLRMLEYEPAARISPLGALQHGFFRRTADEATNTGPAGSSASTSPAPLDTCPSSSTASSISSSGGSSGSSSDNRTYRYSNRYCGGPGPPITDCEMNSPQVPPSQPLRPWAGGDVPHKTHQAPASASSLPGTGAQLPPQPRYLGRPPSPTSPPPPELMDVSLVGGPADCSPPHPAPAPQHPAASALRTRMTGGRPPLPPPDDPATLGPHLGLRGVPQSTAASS
Sequence of CLK1 (P22518 whole entry): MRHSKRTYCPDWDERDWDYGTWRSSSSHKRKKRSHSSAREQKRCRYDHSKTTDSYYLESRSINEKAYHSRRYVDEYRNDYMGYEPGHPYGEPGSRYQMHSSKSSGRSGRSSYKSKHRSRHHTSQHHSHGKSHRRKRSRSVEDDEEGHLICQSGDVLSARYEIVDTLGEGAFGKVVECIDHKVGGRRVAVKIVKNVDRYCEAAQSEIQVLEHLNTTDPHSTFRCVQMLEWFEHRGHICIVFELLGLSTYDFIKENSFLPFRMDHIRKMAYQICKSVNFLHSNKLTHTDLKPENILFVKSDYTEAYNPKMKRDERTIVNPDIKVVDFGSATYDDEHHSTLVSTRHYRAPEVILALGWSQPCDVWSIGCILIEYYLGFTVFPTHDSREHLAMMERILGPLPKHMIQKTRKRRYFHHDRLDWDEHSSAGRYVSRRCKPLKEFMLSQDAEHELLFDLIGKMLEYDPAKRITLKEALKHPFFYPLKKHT

Usually IC50 stands for the concentration that inhibits the measured activity by half. As for `N#Cc1c[nH]c2c(Cl)cccc12` [Compound 6a, 7-Chloro-1H-indole-3-carbonitrile], the IC50 against DYRK2 is > 10000 nM; against DYRK3, > 10000 nM; at CLK4, > 10000 nM; on GSK-3 (read-out: IC50 GSK3, 15 µM ATP), > 10000 nM; on DYRK1B it was > 10000 nM; at CLK2, > 10000 nM. On CLK3, the IC50 is > 10000 nM. In [1], the “Sexp., kin., pH 7.4” value turned out to be 116 ± 14 µM. Moreover, in series [2], the “Sexp., therm., pH 7.4” value is reported as 143 ± 6.3^c µM.
The inhibition is the relative decrease from the control value, in per cent. As for `Cn1c(-c2ccccc2)c(C#N)c2cccc(I)c21` [Compound 13f, 7-Iodo-1-methyl-2-phenyl-1H-indole-3-carbonitrile], the inhibition at 10 µM on DYRK2 (10 µM compound, read-out: Inhibition at 10 µM DYRK2 (class symbol)) is < 20%; at DYRK3 (10 µM compound, read-out: Inhibition at 10 µM DYRK3 (class symbol)), < 20%; at CLK3, < 20%. Moreover, the IC50 against CLK1 was 600 nM; against CLK4, 1000 nM; at DYRK1B, 2100 nM; at CLK2, > 10000 nM; on DYRK1A [3], 650 nM. In series [1], the “Sexp., kin., pH 7.4” value is given as 37.5 (36.6–38.4) µM. In addition, the “Inhibition at 10 µM GSK3 (class symbol)” value in the series on GSK-3 is given as “- (-: less than 20% inhibition at 10 µM, IC50 was not determined)”. Also, the LLE on DYRK1A [4] (Table S2) and on DYRK1A [4] (setting [6]) was 1.54 throughout. Besides, the “Sexp., therm., pH 7.4” value in series [2] is given as <0.5 µM.
The term viability denotes the share of living cells, or the viability signal relative to a control. For `O=C(O)c1nc2ccccc2c2[nH]c3c(I)cccc3c12` [KuFal194 (5), 10-iodo-11H-indolo[3,2-c]quinoline-6-carboxylic acid, reference compound], in series [5], the viability at 3 days, 1 µM was 78%; the viability at 3 days, 3 µM was 75%; the viability at 3 days, 10 µM was found to be 45%. In addition, the “Sexp., kin., pH 7.4” value in [1] is reported as 5.28 (4.99–5.57) µM. Further, the “Sexp., therm., pH 7.4” value in [2] is reported as < 0.5 µM.
On to `N#Cc1c(-c2ccccc2)[nH]c2c(I)cccc12` [Compound 6h, 7-Iodo-2-phenyl-1H-indole-3-carbonitrile], for which the IC50 on DYRK2 was > 10000 nM; at DYRK3, > 10000 nM; against CLK1, 80 nM; on CLK4, 50 nM; on DYRK1B it was 570 nM; against CLK2, 2000 nM. Moreover, the half-inhibitory concentration (IC50) against CLK3 is > 10000 nM. Moreover, in [5], the viability at 3 days, 1 µM came to 97%. Besides, the viability at 3 days, 3 µM in series [5] amounted to 97%. Further, in [5], the viability at 3 days, 10 µM is 87%. Besides, the “Sexp., kin., pH 7.4” value in series [1] is 4.57 (4.11–5.03) µM. The “Sexp., therm., pH 7.4” value in [2] is reported as <0.5 µM.
`N#Cc1c(C2CC2)[nH]c2c(I)cccc12` [Compound 6r, 2-Cyclopropyl-7-iodo-1H-indole-3-carbonitrile]: the 50% inhibitory concentration (IC50) on DYRK2 was 8000 nM; at DYRK3 it was > 10000 nM; at CLK1, 110 nM; at CLK4, 100 nM; at DYRK1B, 500 nM; at CLK2, 1000 nM. The IC50 at DYRK1A [3] was 140 nM. Further, in series [1], the “Sexp., kin., pH 7.4” value is 38.1 (37.6–38.6) µM. The “Inhibition at 10 µM GSK3 (class symbol)” value with GSK-3 is given as “- (-: less than 20% inhibition at 10 µM, IC50 was not determined)”. Further, at CLK3, the inhibition at 10 µM was < 20%. Further, the LLE at DYRK1A [4] (Table S2) and on DYRK1A [4] (setting [6]) was 3.37 each time. The “Sexp., therm., pH 7.4” value in [2] is <0.5 µM.
In the case of `N#Cc1c(-c2ccccc2)[nH]c2c(Cl)cccc12` [Compound 6f, 7-Chloro-2-phenyl-1H-indole-3-carbonitrile], the IC50 is > 10000 nM against DYRK2; > 10000 nM against DYRK3; 70 nM on CLK1; 120 nM against CLK4; > 10000 nM on DYRK1B; > 10000 nM against CLK2. Also, the IC50 at CLK3 was > 10000 nM. The viability at 3 days, 1 µM in series [5] stood at 94%. Besides, the viability at 3 days, 3 µM in series [5] was 98%. In series [5], the viability at 3 days, 10 µM turned out to be 85%. Further, in series [1], the “Sexp., kin., pH 7.4” value was 14.7 ± 4.5 µM. Further, in series [2], the “Sexp., therm., pH 7.4” value is listed as <0.5 µM.
